experiment: recombinant barcode read abundance after kanamycin selection (control-corrected) (log10(CPM+1)); higher = more efficient recombination; sequences stand for … in AGTGCAGAGAAAATCGGCCAGTTTTCTCTGCCTGCAGTCCGCATGCCGT…ATTTATGCAGCGGACTGCCTTTCTCCCAAAGTGATAAACCGGACAGTATCATGGACCGGTTTTCCCGGTAATCCGTATTTGCAAGGTTGGTTTCACT; site = the 11-nt target
Outline: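 A vector carrying a T7-inducible recombinase and the last 73 bp of the bridge RNA received, by Gibson cloning, oligos encoding a promoter, target, barcode and the first 104 bridge RNA bases under J23119. The pooled constructs entered E. coli together with a donor plasmid by electroporation. Selection used chloramphenicol/ampicillin/kanamycin with 0.1 mM IPTG, with chloramphenicol/ampicillin LB agar as the control, each in two replicates. Recombination efficiency is the averaged, control-corrected counts-per-million of barcodes at recombinant junctions, reported as log10(CPM+1).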

Sequence | recombinant barcode read abundance (log10)
TCGCGACGGTGGGTTCTAACCTGTTGCCGCC [TCGCGACCTCG_LTGcore_GG_RTGcore_GG] (site TCGCGACCTCG) (LTG core: GG, RTG core: GG) | 0.0807
TCGCGACTATGGGTTCTAACCTGTTGCCGTA [TCGCGACCTCG_LTGcore_TA_RTGcore_TA] (site TCGCGACCTCG) (LTG core: TA, RTG core: TA) | 0.139
TCTACCCCTTGGGTTCTAACCTGTTGCTGCA [TCTACCCCTCA_LTGcore_CT_RTGcore_TG] (site TCTACCCCTCA) (LTG core: CT, RTG core: TG) | 0.217
TCTACCCCTTGGGTTCTAACCTGTTGCTGGC [TCTACCCCTCA_LTGcore_CT_RTGcore_GC] (site TCTACCCCTCA) (LTG core: CT, RTG core: GC) | 0.129
TCTACCCGCTGGGTTCTAACCTGTTGCTGAG [TCTACCCCTCA_LTGcore_GC_RTGcore_CT] (site TCTACCCCTCA) (LTG core: GC, RTG core: CT) | 0.045
TCTACCCGTTGGGTTCTAACCTGTTGCTGAG [TCTACCCCTCA_LTGcore_GT_RTGcore_CT] (site TCTACCCCTCA) (LTG core: GT, RTG core: CT) | 0.149
TCTACCCTATGGGTTCTAACCTGTTGCTGTA [TCTACCCCTCA_LTGcore_TA_RTGcore_TA] (site TCTACCCCTCA) (LTG core: TA, RTG core: TA) | 0.0877
TCTACCCTTTGGGTTCTAACCTGTTGCTGAA [TCTACCCCTCA_LTGcore_TT_RTGcore_TT] (site TCTACCCCTCA) (LTG core: TT, RTG core: TT) | 0.0207
TCTACCCTTTGGGTTCTAACCTGTTGCTGAG [TCTACCCCTCA_LTGcore_TT_RTGcore_CT] (site TCTACCCCTCA) (LTG core: TT, RTG core: CT) | 0.0279
TGATACCAGTGGGTTCTAACCTGTTGCGTAG [TGATACCCTAC_LTGcore_AG_RTGcore_CT] (site TGATACCCTAC) (LTG core: AG, RTG core: CT) | 0.0989
TGATACCATTGGGTTCTAACCTGTTGCGTAG [TGATACCCTAC_LTGcore_AT_RTGcore_CT] (site TGATACCCTAC) (LTG core: AT, RTG core: CT) | 0.0337
TGATACCCGTGGGTTCTAACCTGTTGCGTAG [TGATACCCTAC_LTGcore_CG_RTGcore_CT] (site TGATACCCTAC) (LTG core: CG, RTG core: CT) | 0.907
TGATACCCGTGGGTTCTAACCTGTTGCGTCG [TGATACCCTAC_LTGcore_CG_RTGcore_CG] (site TGATACCCTAC) (LTG core: CG, RTG core: CG) | 0.0552
TGATACCCTTGGGTTCTAACCTGTTGCGTTG [TGATACCCTAC_LTGcore_CT_RTGcore_CA] (site TGATACCCTAC) (LTG core: CT, RTG core: CA) | 1.25
TGATACCGCTGGGTTCTAACCTGTTGCGTGC [TGATACCCTAC_LTGcore_GC_RTGcore_GC] (site TGATACCCTAC) (LTG core: GC, RTG core: GC) | 0.107
TGATACCGGTGGGTTCTAACCTGTTGCGTCC [TGATACCCTAC_LTGcore_GG_RTGcore_GG] (site TGATACCCTAC) (LTG core: GG, RTG core: GG) | 0.115
TGATACCTGTGGGTTCTAACCTGTTGCGTAG [TGATACCCTAC_LTGcore_TG_RTGcore_CT] (site TGATACCCTAC) (LTG core: TG, RTG core: CT) | 0.064

Sequence | recombinant barcode read abundance (log10)
TGTATTCCCTGGGTTCTAACCTGTTGCCTGG [TGTATTCCTAG_LTGcore_CC_RTGcore_CC] (site TGTATTCCTAG) (LTG core: CC, RTG core: CC) | 0.267
TGTATTCCTTGGGTTCTAACCTGTTGCCTAT [TGTATTCCTAG_LTGcore_CT_RTGcore_AT] (site TGTATTCCTAG) (LTG core: CT, RTG core: AT) | 0.192
TGTATTCCTTGGGTTCTAACCTGTTGCCTCC [TGTATTCCTAG_LTGcore_CT_RTGcore_GG] (site TGTATTCCTAG) (LTG core: CT, RTG core: GG) | 0.364
TGTATTCCTTGGGTTCTAACCTGTTGCCTGT [TGTATTCCTAG_LTGcore_CT_RTGcore_AC] (site TGTATTCCTAG) (LTG core: CT, RTG core: AC) | 0.0232
TGTATTCGATGGGTTCTAACCTGTTGCCTTC [TGTATTCCTAG_LTGcore_GA_RTGcore_GA] (site TGTATTCCTAG) (LTG core: GA, RTG core: GA) | 0.138
TGTATTCGGTGGGTTCTAACCTGTTGCCTCC [TGTATTCCTAG_LTGcore_GG_RTGcore_GG] (site TGTATTCCTAG) (LTG core: GG, RTG core: GG) | 0.0849
TGTATTCGTTGGGTTCTAACCTGTTGCCTAC [TGTATTCCTAG_LTGcore_GT_RTGcore_GT] (site TGTATTCCTAG) (LTG core: GT, RTG core: GT) | 0.00818
TGTATTCTATGGGTTCTAACCTGTTGCCTTA [TGTATTCCTAG_LTGcore_TA_RTGcore_TA] (site TGTATTCCTAG) (LTG core: TA, RTG core: TA) | 0.0243
TGTATTCTTTGGGTTCTAACCTGTTGCCTAG [TGTATTCCTAG_LTGcore_TT_RTGcore_CT] (site TGTATTCCTAG) (LTG core: TT, RTG core: CT) | 0.242
TTATAAACTTGGGTTCTAACCTGTTGCCTAG [TTATAAACTAG_LTGcore_CT_RTGcore_CT] (site TTATAAACTAG) (LTG core: CT, RTG core: CT) | 0.894
TTATAAACTTGGGTTCTAACCTGTTGCCTCG [TTATAAACTAG_LTGcore_CT_RTGcore_CG] (site TTATAAACTAG) (LTG core: CT, RTG core: CG) | 0.154
TTATAAACTTGGGTTCTAACCTGTTGCCTGC [TTATAAACTAG_LTGcore_CT_RTGcore_GC] (site TTATAAACTAG) (LTG core: CT, RTG core: GC) | 0.178
TTATAAACTTGGGTTCTAACCTGTTGCCTTG [TTATAAACTAG_LTGcore_CT_RTGcore_CA] (site TTATAAACTAG) (LTG core: CT, RTG core: CA) | 0.173
TTATAAAGATGGGTTCTAACCTGTTGCCTTC [TTATAAACTAG_LTGcore_GA_RTGcore_GA] (site TTATAAACTAG) (LTG core: GA, RTG core: GA) | 0.0936
TTATAAAGGTGGGTTCTAACCTGTTGCCTCC [TTATAAACTAG_LTGcore_GG_RTGcore_GG] (site TTATAAACTAG) (LTG core: GG, RTG core: GG) | 0.154
TTATAAATCTGGGTTCTAACCTGTTGCCTGA [TTATAAACTAG_LTGcore_TC_RTGcore_TC] (site TTATAAACTAG) (LTG core: TC, RTG core: TC) | 0.244

Reference: the supplement of paper PMC11208160
